Data taken from patent US6340684B1, “Phthalazine derivatives as phosphodiesterase 4 inhibitors” (Zambon Group S.p.A., priority 1998, dated 2002).

Biological target: PDE 4 enzyme
Experiment: PDE 4 enzyme inhibition (Scintillation Proximity Assay, enzyme purified from human polymorphonuclear leukocytes)
Format: biochemical
Conditions: PDE 4 from human PMNs; SPA, [3H]cAMP, 40 minutes at 30° C.; read-out: IC50 (concentration required to inhibit cyclic nucleotide hydrolysis by 50%)
Protocol: Human polymorphonuclear leukocyte isolation
The polymorphonuclear leukocytes (PMNs) were isolated from peripheral blood of healthy volunteers according to Boyum A. (Scand. J. Immunol., 1976, 5th suppl., 9). Briefly, the PMNs were purified by Ficoll-Paque gradient centrifugation followed by sedimentation on dextran and the erythrocyte contamination was eliminated by hypotonic lysis.
PDE 4 enzyme purification
The human PMNs were suspended in TRIS/HCl buffer (10 mM, pH 7.8) containing MgCl2 (5 mM), EGTA (4 mM), mercaptoethanol (5 mM), TRITON-X100 (1%), pepstatin A (1 μM), PMSF (100 μM) and leupeptin (1 μM), and homogenised by Polytron homogeniser. The homogenate was centrifuged at 25,000×g for 30 minutes at 4° C. and the PDE 4 enzyme was purified by ion exchange chromatography using the FPLC technique according to Schudt C. et al. (Naunyn-Schmidberg's Arch. Pharmacol., 1991, 334, 682). The supernatant was seeded on a UNO Q12 column (Bio-Rad) and the enzyme was eluted by sodium acetate linear gradient from 50 mM to 1M using a flow rate of 4.5 ml/minutes. […]
The enzyme activity was evaluated with a Scintillation Proximity Assay (SPA) kit (Amersham). […]
SPA beads (50 μl) containing 18 mM zinc sulphate were added to stop the reaction and after 20 minutes at room temperature the radioactivity was measured using a scintillation counter. […]

CS(=O)(=O)N1Cc2c(ccc(OC(F)F)c2OC2CCCO2)C(Cc2c(Cl)cncc2Cl)=N1 (stereo not shown) [Compound 10, 1-(3,5-dichloro-pyridin-4-ylmethyl)-3-methansulphonyl-6-difluoromethoxy-5-(tetrahydro-furan-2-yloxy)-4H-phthalazine]
IC50: 8 ± 0.5 nM
